Measured values taken from patent publication US20250313635A1, “ANTI-INTEGRIN ANTIBODIES AND USES THEREOF” (Merck Sharp & Dohme LLC, priority 2022, published 2025).

Legend:
[1] = test system: bleomycin-induced lung fibrosis mouse model; test: Mouse bleomycin lung fibrosis model; format: in vivo; conditions: MK-0429 200 mpk osmotic minipump, Nintedanib 60 mpk po qd
Experimental: Mouse bleomycin lungfibrosis models. Adult male C57BL/6 mice (Taconic, Rensselaer, NY) were housed in a temperature and humidity-controlled facility with a 12-hour light: 12-hour dark cycle. Animals had ad libitum access to food (Purina Rodent Chow 5053, LabDiet, St. Louis, MO) and water. All procedures utilizing experimental animals were conducted in accordance with the Guide for the Care and Use of Laboratory Animals, and experimental procedures were reviewed and approved by the Institutional Animal Care and Use Committee at MRL, Kenilworth, NJ.
For osmotic minipump implantation, trifluoroacetate (TFA) salt of MK-0429 was formulated in 50% dimethylsulfoxide (DMSO)/50% H2O at a concentration of 416 mg/mL. MK-0429 or vehicle solution were filled in minipumps (Alzet, #1007D, flow rate 0.5 μL/hour). Minipumps were placed in mice subcutaneously in a pocket on the back between the shoulder blades. A small incision was made and a subcutaneous pocket formed by blunt dissection. A sterile minipump was inserted into the subcutaneous pocket. The incision was closed with staples or non-absorbable suture or absorbable (subcuticular) suture. The minipumps were used for continuous drug delivery for two weeks.
(§1) Mice at 12˜13 weeks of age were randomized to five groups: saline, bleomycin instillation with vehicle (osmotic minipump), bleomycin instillation with MK-0429 treatment, bleomycin instillation with vehicle oral treatment, and bleomycin instillation with Nintedanib treatment. All mice were anaesthetized with isoflurane. Bleomycin was dosed by intratracheal (i.t) instillation in a volume of 50 μL, at a dose of 1 unit/kg body weight. After instillation, mice were kept in a heads-up position for 2-5 minutes before putting into cages. MK-0429 (200 mg/kg) was administered by Osmotic pump from day 5 to day 14 and Nintedanib (60 mg/kg) was administered, p.o., q.d., for 14 days. Vehicle was dosed orally at 10 am daily from the day 5 to the end of the studies and dosing volume was 10 mL/kg. For plasma PK analysis, an aliquot of 50 μL plasma was spiked into a 96-well plate, and 200 μL of acetonitrile containing internal standard were added for protein precipitation. The mixture was vortexed, centrifuged at 4000 rpm for 20 minutes. Then 50 μL of supernatant fraction was mixed with 200 μL H2O and the final solution were injected for LC-MS/MS analysis. The methods for quantitative analysis were developed on UPLC (Waters) chromatographic system equipped with an API4000 QTrap™ mass spectrometer (Applied Biosystems, Concord, Ontario, Canada). Analyst 1.5 software packages (Applied Biosystems) were used to control the LC-MS/MS system and data acquisition and processing.
Histopathology analysis. Upon completion of the study, animals were euthanized and tissues were collected for histological assessment. Lung tissues were perfused with 10% formalin, fixed for 24 hours, and then paraffin embedded. Tissue sections were stained with hematoxylin & eosin (H&E) and Masson's trichrome, subsequently evaluated under light microscope. The severity of histopathologic changes and fibrosis in the lung were graded as described previously by pathologists (Ashcroft et al., J. Clin. Pathol. 41, 467-470 (1988); Hubner et al., Biotechniques 44(507-511), 514-607 (2008)). Following deparaffinization and rehydration, each lung tissue section was processed to identify αSMA deposition by immunohistochemistry. The primary antibodies used were αSMA antibody from Sigma. The Aperio ScanScope™ XT Slide Scanner (Aperio Technologies) system was used to capture whole slide digital images with a 20×objective. Digital images were managed using Aperio Spectrum™. The positive stains were identified and quantified using a macro created from a color deconvolution algorithm (Aperio Technologies). Statistical analysis was performed by using One-way ANOVA followed by Tukey's test.

[2] = Plasma PK analysis in bleomycin model (LC-MS/MS); format: in vivo; conditions: mouse, two hours after the last dose at end of study; MK-0429 200 mpk osmotic minipump, Nintedanib 60 mpk po qd
Experimental: as §1, with “Analyst 1.5 software packages (Applied Biosystems) were used to control the LC-MS/MS system and data acquisition and processing.” left out

[3] = test system: Normal human lung fibroblasts; test: αSMA imaging, TGFβ-induced αSMA expression; format: cell-based; conditions: TGFβ 5 ng/mL, pre-treated 30 minutes, MK-0429 (10 µM) or SB-525334 (10 μM), 48 hours
Experimental: αSMA imaging. Primary cells (passage 3-5) were grown on Cell carrier Ultra, collagen Type 1 coated 96-well plates (Perkin Elmer, #6055700) at a density of 25,000 cells/well. Once the cells adhere, they were starved in serum free media for 24 hours followed by addition of treatments, i.e., 5 ng/mL TGFβ (Biolegend #580702)±inhibitors. Cells were pre-treated with inhibitors for 30 minutes prior to the addition of TGFβ stimulation. 48 hours post treatment, the cells were fixed in 4% methanol free paraformaldehyde (ThermoFisher Scientific #28908) for 20 minutes at room temperature and incubated with anti-alpha smooth muscle Actin antibody (Abcam #ab7817) at 1:4000 overnight at 4° C. Following primary antibody incubation, cells were incubated with Goat anti-mouse secondary antibody (ThermoFisher Scientific #A32723) at 1:500 and Hoechst (ThermoFisher Scientific #62249) at 1:1000 for one hour at RT. The fixed and stained cells were images for immunofluorescence on Perkin Elmer's Opera Phenix high content Imager.

[4] = 14 days treatment, vs BLM-vehicle

COC(=O)c1ccc2c(c1)NC(=O)/C2=C(\Nc1ccc(N(C)C(=O)CN2CCN(C)CC2)cc1)c1ccccc1 [Nintedanib, reference compound]
body weight difference vs bleomycin group [1]: no significant body weight difference | BALF TIMP-1 content [1, 4]: significantly decreased | bleomycin-induced αSMA expression (IHC) [1, 4]: significantly decreased | inflammation in the lung [1, 4]: decreased inflammation | modified Ashcroft score [1, 4]: significantly improved | mean plasma concentration [2]: 656+229 ng/mL

Cc1cccc(-c2[nH]c(C(C)(C)C)nc2-c2ccc3nccnc3c2)n1 [SB-525334, reference compound]
αSMA intensity and the percentage of stimulated cells following TGFβ treatment [3]: significantly reduced
